Square brackets hold non-standard residues; d marks the D form. Peptide text beside a SMILES is read from it. * marks the point of attachment. Sta = CC(C)C[C@H](N)[C@@H](O)CC(=O)O; Isovaleryl = CC(C)CC(=O)*
Assays:
hog renin = settings: after the injection of hog renin into nephrectomized rats; cited from earlier work
[1] = tested on: renin enzyme prepared from hog kidney; test: Renin assay (solid phase radioimmunoassay of angiotensin I); type: biochemical; settings: ratio of renin I50 to pepsin I50
Experimental: The compound of Example 1 was evaluated against renin, employing a solid phase radioimmunossay adapted and modified from the assay of Ikedo et al., W. of Clinical Endocrinology and Metabolism, 54, 423-428, 1982), and pepsin assays as illustrated below:
Ten μl of the test inhibitor/broth extract from Example 1 was mixed with 5 μl of 0.11M phenylmethylsulfonyl fluoride and 0.25 ml of 0.1M potassium phosphate buffer, pH 7.0, containing 0.05% sodium azide and one mg/ml of bovine serum albumin. Twenty μl of 2 μg renin enzyme prepared from hog kidney was added and the mixture was incubated at 37° C. for 20 minutes. The enzyme reaction was initiated by adding 20 μl of substrate solution which was prepared by dissolving 4 mg of angiotensinogen in 4 ml of 0.1M potassium phosphate buffer, pH 7.0, containing 0.05% sodium azide and 1 mg/ml of BSA.
After 20 minutes' incubation at 37° C., the enzyme reaction was stopped by the addition of 100 μl of ^125 I-angiotensin I tracer-pepstatin. […] Two ml of water was then added to each tube and the solution was aspirated, with the tube with the ball being counted in a γ-counter.
The activity of the test compound was calculated based on the standard curve of known amount of angiotensin I.

Compound: CC(C)CC(=O)N[C@H](C(=O)N[C@H](C(=O)N[C@@H](CC(C)C)[C@@H](O)CC(=O)N[C@@H](C)C(=O)N[C@@H](CC(C)C)[C@@H](O)CC(=O)O)C(C)C)C(C)C [Pepstatin A] (Isovaleryl-VV[Sta]A[Sta]-OH)
- blood pressure in vivo (hog renin): reduces blood pressure
- I50 ratio of renin/pepsin [1]: 1160

Source: patent US4980283A, “Renin-inhibitory pepstatin phenyl derivatives” (Merck & Co., Inc., priority 1989, dated 1990)
